Measurements from PubChem BioAssay AID256 (DTP/NCI, 2004).
Several values for one entry are separate records, joined by “and”; a condition that tells them apart may be missing. Equal values may be shown once. Toxic doses and inconclusive results are not listed. Rule for the calls: active = survival T/C of 150% or more; inactive = T/C below 125% in these data.

Test system: CD2F1 mice, L1210 leukemia ip, survival T/C
Assay: NCI In Vivo Anticancer Drug Screen. Data for tumor model L1210 Leukemia (intraperitoneal) in CD2F1 (CDF1) mice
Details: higher = longer survival
Summary of the method: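 Each value reflects a quotient of treated over vehicle control outcomes in mice with a transplanted tumor.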

[1] = endpoint: mean survival time, dose: 100.0 mg/kg/injection, schedule: Q01DX009 (ip), vehicle: saline with Tween-80

Measured: T/C

CC(=O)CC(=O)c1cccnc1
inactive: endpoint: mean survival time, dose: 100.0 mg/kg/injection, schedule: Q04DX003 (ip), vehicle: saline with Tween-80 103 % of control | endpoint: mean survival time, dose: 200.0 mg/kg/injection, schedule: Q04DX003 (ip), vehicle: saline with Tween-80 97 % of control | endpoint: mean survival time, dose: 400.0 mg/kg/injection, schedule: Q04DX003 (ip), vehicle: saline with Tween-80 101 % of control

O=C(O)c1ccccc1Oc1ccccc1C(=O)O
inactive: endpoint: mean survival time, dose: 100.0 mg/kg/injection, schedule: Q01DX009 (ip), vehicle: saline 101 % of control | endpoint: mean survival time, dose: 200.0 mg/kg/injection, schedule: Q01DX009 (ip), vehicle: saline 101 % of control | endpoint: mean survival time, dose: 400.0 mg/kg/injection, schedule: Q01DX009 (ip), vehicle: saline 94 % of control

NC(CS)=NCC12CC3CC(CC(C3)C1)C2
inactive: endpoint: mean survival time, dose: 12.5 mg/kg/injection, schedule: Q01DX001 (ip), vehicle: Klucel (hydroxypropylcellulose) (HPC) 92 % of control | endpoint: mean survival time, dose: 25.0 mg/kg/injection, schedule: Q01DX001 (ip), vehicle: Klucel (hydroxypropylcellulose) (HPC) 94 % of control | endpoint: mean survival time, dose: 50.0 mg/kg/injection, schedule: Q01DX001 (ip), vehicle: Klucel (hydroxypropylcellulose) (HPC) 101 % of control

CC(=O)OCC1OC(n2cc(CBr)nn2)C(OC(C)=O)C(OC(C)=O)C1OC(C)=O (stereo not given)
inactive: endpoint: mean survival time, dose: 3.12 mg/kg/injection, schedule: Q01DX009 (ip), vehicle: saline with Tween-80 94 % of control and 96 % of control | endpoint: mean survival time, dose: 6.25 mg/kg/injection, schedule: Q01DX009 (ip), vehicle: saline with Tween-80 98 % of control and 102 % of control | endpoint: mean survival time, dose: 6.25 mg/kg/injection, schedule: Q01DX009 (ip), vehicle: suspension in saline 101 % of control | endpoint: mean survival time, dose: 6.25 mg/kg/injection, schedule: Q04DX003 (ip), vehicle: suspension in saline 100 % of control | endpoint: mean survival time, dose: 7.5 mg/kg/injection, schedule: Q01DX009 (ip), vehicle: saline 98 % of control | endpoint: mean survival time, dose: 12.5 mg/kg/injection, schedule: Q01DX009 (ip), vehicle: saline with Tween-80 94 % of control and 104 % of control | endpoint: mean survival time, dose: 12.5 mg/kg/injection, schedule: Q01DX009 (ip), vehicle: suspension in saline 102 % of control | endpoint: mean survival time, dose: 12.5 mg/kg/injection, schedule: Q04DX003 (ip), vehicle: suspension in saline 107 % of control | endpoint: mean survival time, dose: 15.0 mg/kg/injection, schedule: Q01DX009 (ip), vehicle: saline 100 % of control | endpoint: mean survival time, dose: 25.0 mg/kg/injection, schedule: Q01DX009 (ip), vehicle: saline with Tween-80 102 % of control and 108 % of control | endpoint: mean survival time, dose: 25.0 mg/kg/injection, schedule: Q01DX009 (ip), vehicle: suspension in saline 101 % of control | endpoint: mean survival time, dose: 25.0 mg/kg/injection, schedule: Q04DX003 (ip), vehicle: suspension in saline 100 % of control | endpoint: mean survival time, dose: 30.0 mg/kg/injection, schedule: Q01DX009 (ip), vehicle: saline 98 % of control | endpoint: mean survival time, dose: 50.0 mg/kg/injection, schedule: Q01DX009 (ip), vehicle: saline with Tween-80 95 % of control and 102 % of control | endpoint: mean survival time, dose: 50.0 mg/kg/injection, schedule: Q01DX009 (ip), vehicle: suspension in saline 96 % of control | endpoint: mean survival time, dose: 50.0 mg/kg/injection, schedule: Q04DX003 (ip), vehicle: suspension in saline 103 % of control | endpoint: mean survival time, dose: 60.0 mg/kg/injection, schedule: Q01DX009 (ip), vehicle: saline 102 % of control | [1] 102 % of control

O=[N+]([O-])c1cccc2c1cc([N+](=O)[O-])c1cccnc12
inactive: endpoint: mean survival time, dose: 25.0 mg/kg/injection, schedule: Q04DX002 (ip), vehicle: saline with Tween-80 98 % of control | endpoint: mean survival time, dose: 50.0 mg/kg/injection, schedule: Q04DX002 (ip), vehicle: saline with Tween-80 98 % of control | endpoint: mean survival time, dose: 100.0 mg/kg/injection, schedule: Q04DX002 (ip), vehicle: saline with Tween-80 98 % of control

CCCCN(CCCC)P1(=O)OCCO1
inactive: endpoint: mean survival time, dose: 100.0 mg/kg/injection, schedule: Q04DX002 (ip), vehicle: saline 103 % of control | endpoint: mean survival time, dose: 200.0 mg/kg/injection, schedule: Q04DX002 (ip), vehicle: saline 107 % of control | endpoint: mean survival time, dose: 400.0 mg/kg/injection, schedule: Q04DX002 (ip), vehicle: saline 98 % of control

Cc1ccc(S(=O)(=O)CN2CCC(=O)c3ccccc32)cc1
inactive: endpoint: mean survival time, dose: 75.0 mg/kg/injection, schedule: Q04DX003 (ip), vehicle: saline 95 % of control | endpoint: mean survival time, dose: 150.0 mg/kg/injection, schedule: Q04DX003 (ip), vehicle: saline 91 % of control | endpoint: mean survival time, dose: 300.0 mg/kg/injection, schedule: Q04DX003 (ip), vehicle: saline 97 % of control

CN(C)/N=C\c1ccc([N+](C)(C)C)cc1
inactive: endpoint: mean survival time, dose: 12.5 mg/kg/injection, schedule: Q04DX003 (ip), vehicle: Klucel (hydroxypropylcellulose) (HPC) 103 % of control | endpoint: mean survival time, dose: 25.0 mg/kg/injection, schedule: Q04DX003 (ip), vehicle: Klucel (hydroxypropylcellulose) (HPC) 109 % of control | endpoint: mean survival time, dose: 50.0 mg/kg/injection, schedule: Q04DX003 (ip), vehicle: Klucel (hydroxypropylcellulose) (HPC) 106 % of control

CCOC(=O)C(CC)C(=O)OCC
inactive: [1] 94 % of control | endpoint: mean survival time, dose: 200.0 mg/kg/injection, schedule: Q01DX009 (ip), vehicle: saline with Tween-80 93 % of control | endpoint: mean survival time, dose: 400.0 mg/kg/injection, schedule: Q01DX009 (ip), vehicle: saline with Tween-80 94 % of control

OCCO
inactive: endpoint: mean survival time, dose: 100.0 mg/kg/injection, schedule: Q01DX009 (ip), vehicle: saline sonified 94 % of control and 101 % of control | endpoint: mean survival time, dose: 100.0 mg/kg/injection, schedule: Q04DX003 (ip), vehicle: saline 103 % of control and 106 % of control | endpoint: mean survival time, dose: 200.0 mg/kg/injection, schedule: Q01DX009 (ip), vehicle: saline sonified 94 % of control and 101 % of control | endpoint: mean survival time, dose: 200.0 mg/kg/injection, schedule: Q04DX003 (ip), vehicle: saline 104 % of control and 98 % of control | endpoint: mean survival time, dose: 400.0 mg/kg/injection, schedule: Q01DX009 (ip), vehicle: saline sonified 93 % of control and 104 % of control | endpoint: mean survival time, dose: 400.0 mg/kg/injection, schedule: Q04DX003 (ip), vehicle: saline 104 % of control and 101 % of control | endpoint: median survival time, dose: 0.25 % in 0.5 ml injection vol, schedule: Q01DX009 (ip), vehicle: water 95 % of control | endpoint: median survival time, dose: 0.5 % in 0.5 ml injection vol, schedule: Q01DX009 (ip), vehicle: water 94 % of control | endpoint: median survival time, dose: 1.0 % in 0.5 ml injection vol, schedule: Q01DX009 (ip), vehicle: water 94 % of control | endpoint: median survival time, dose: 2.0 % in 0.5 ml injection vol, schedule: Q01DX009 (ip), vehicle: water 105 % of control

O=C(NC(C(=O)NC(C(=O)O)C1CC(Cl)=NO1)C1CC(Cl)=NO1)OCC1c2ccccc2-c2ccccc21 (stereo not given)
inactive: endpoint: mean survival time, dose: 1.6 mg/kg/injection, schedule: Q01DX009 (ip), vehicle: saline 122 % of control | endpoint: mean survival time, dose: 3.1 mg/kg/injection, schedule: Q01DX009 (ip), vehicle: saline 116 % of control | endpoint: mean survival time, dose: 25.0 mg/kg/injection, schedule: Q01DX009 (ip), vehicle: saline 87 % of control

O=C1Cc2cc3c(cc2C=C2CCCN12)OCO3
inactive: endpoint: mean survival time, dose: 25.0 mg/kg/injection, schedule: Q01DX009 (ip), vehicle: water 103 % of control | endpoint: mean survival time, dose: 50.0 mg/kg/injection, schedule: Q01DX009 (ip), vehicle: water 97 % of control | endpoint: mean survival time, dose: 100.0 mg/kg/injection, schedule: Q01DX009 (ip), vehicle: water 103 % of control | endpoint: mean survival time, dose: 400.0 mg/kg/injection, schedule: Q01DX009 (ip), vehicle: water 113 % of control

O=C(COc1cc(Cl)c(Cl)cc1Cl)OCCOc1cc(Cl)c(Cl)cc1Cl
inactive: endpoint: mean survival time, dose: 15.0 mg/kg/injection, schedule: Q04DX003 (ip), vehicle: saline 93 % of control | endpoint: mean survival time, dose: 30.0 mg/kg/injection, schedule: Q04DX003 (ip), vehicle: saline 89 % of control | endpoint: mean survival time, dose: 200.0 mg/kg/injection, schedule: Q01DX001 (ip), vehicle: saline 86 % of control

C[C@@H]1CC[C@]2(C)CC[C@]3(C)C(=CC[C@@H]4[C@@]5(C)CC[C@@H](OC(=O)c6ccc(O)cc6)C(C)(C)[C@@H]5C[C@H](O)[C@]43C)[C@@H]2[C@H]1C(=O)O
inactive: endpoint: median survival time, dose: 0.06 mg/kg/injection, schedule: Q01DX009 (ip), vehicle: saline with Tween-80 103 % of control | endpoint: median survival time, dose: 0.12 mg/kg/injection, schedule: Q01DX009 (ip), vehicle: saline with Tween-80 111 % of control | endpoint: median survival time, dose: 0.25 mg/kg/injection, schedule: Q01DX009 (ip), vehicle: saline with Tween-80 114 % of control | endpoint: median survival time, dose: 0.5 mg/kg/injection, schedule: Q01DX009 (ip), vehicle: saline with Tween-80 123 % of control | endpoint: median survival time, dose: 1.0 mg/kg/injection, schedule: Q01DX009 (ip), vehicle: saline with Tween-80 107 % of control

O=C(CC(c1ccccc1)C(C(=O)O)C(=O)O)c1ccccc1 (stereo not given)
inactive: endpoint: mean survival time, dose: 100.0 mg/kg/injection, schedule: Q04DX002 (ip), vehicle: other 97 % of control | endpoint: mean survival time, dose: 200.0 mg/kg/injection, schedule: Q04DX002 (ip), vehicle: other 101 % of control | endpoint: mean survival time, dose: 400.0 mg/kg/injection, schedule: Q04DX002 (ip), vehicle: other 104 % of control
